Holding throughout (assay): SRB antiproliferative assay
What all share (assay type): cell-based, human
On the technique in general: The SRB assay estimates cell density from bound dye.

One assay deals with T47D mammary malignancy. The settings on record: Homo sapiens, T47D, 72 h; read-out: Cytotoxicity (as of %control) IC50 value, T47D mammary malignancy. The procedure: (§1) All malignancy cell lines were cultured in high glucose DMEM (Bio Whittaker, Verviers, Belgium) containing 10% FBS, 4-(2-hydroxyethyl)-1-piperazineethanesulfonic acid (HEPES) Buffer (10 mM), L-glutamine (2 mM), gentamicin (50 µg/mL), penicillin (100 U/mL), and streptomycin sulfate ([…]) from Sigma (St. Luis, MO, USA) whereas Sulforhodamine B was from Santa Cruz Biotechnology (Inc. Texas, USA). Surviving cancer cell lines provide numerous advantages; they provide a pure and continuous supply of cells, thus overcoming any ethical barriers concerning human tissue usage, and are cost-effective. For cytotoxicity screening, adherent monolayers of all procured malignancies’ cell lines were examined. Periodontal ligament fibroblasts (PDL) were used to determine selective cytotoxicity.

The subject of assay [1] is MDA-MB-231 invasive mammary malignancy. The settings on record: Homo sapiens, MDA-MB-231, 72 h, read-out: Cytotoxicity (as of %control) IC50 value, MDA-MB-231 invasive mammary malignancy. The procedure: as §1
The subject of a further assay is MCF7 mammary malignancy. The following applies: Homo sapiens, MCF7, 72 h, read-out: Cytotoxicity (as of %control) IC50 value, MCF7 mammary malignancy. The procedure: as §1
The test system of assay [2] is PANC1 pancreatic cell line. The following applies: Homo sapiens, PANC-1, 72 h, read-out: Cytotoxicity (as of %control) IC50 value, PANC1. The procedure:
as §1

In assay [3] the test system is MDA-MB-453 invasive mammary malignancy. The settings on record: Homo sapiens, MDA-MB-453, 72 h, read-out: Cytotoxicity (as of %control) IC50 value, MDA-MB-453 invasive mammary malignancy. The procedure:
as §1

The test system of another assay is Hela cervix malignancy. The settings on record: Homo sapiens, HeLa, 72 h, read-out: Cytotoxicity (as of %Control) IC50 value, Hela cervix malignancy. The procedure:
as §1

In a further assay the test system is A549 lung malignancy. The following applies: Homo sapiens, A549, 72 h; read-out: Cytotoxicity (as of %Control) IC50 value, A549 lung malignancy. The procedure:
as §1

Assay [4] relates to SW480 colorectal cancer cell line. The following applies: Homo sapiens, SW480, 72 h; read-out: Cytotoxicity (as of %control) IC50 value, SW480. The procedure:
as §1

The test system of assay [5] is BT-549 invasive mammary malignancy. The settings on record: Homo sapiens, BT-549, 72 h; read-out: Cytotoxicity (as of %control) IC50 value, BT-549 invasive mammary malignancy. The procedure: as §1

Structures are written as SMILES.

On to `COc1ccc(/C=N/NC(=S)N/N=C/c2ccc(OC)cc2)cc1` [L2, 1,5-bis (4-methoxyanisaldehyde) thiocarbohydrazine], for which the IC50 (in the assay on T47D mammary malignancy; in [1]; in the assay with MCF7 mammary malignancy; in [2]; in [3]; in the assay with Hela cervix malignancy) was above 200 µM throughout. Further, the IC50 in the assay on A549 lung malignancy amounted to 36.6 ± 0.2 µM; in assay [4], 51.6 ± 3.07 µM; in [5] it was 94.8 ± 4.17 µM.

One may read the IC50 as the concentration needed to halve the response being measured.

The record behind these values is article PMC12394552, “Multi-biological activity evaluation of Sn(П), Zn(П) and Fe(П) complexes based on thiocarbohydrazide schiff bases: synthesis, spectroscopic investigations and fluorescence studies” (Scientific Reports, 2025).
